From US20040006236A1, “Diaminopropionic acid derivatives” (priority 1999, published 2004)
Like-named read-outs stand apart in the source and are kept apart here.

What was measured:
[1] = molecular target: T1, LFA-1 binding to immobilized ICAM-1 (Homo sapiens, UniProt P05107+P20701); test: LFA-1/ICAM-1 protein-protein assay (solid-phase ELISA)
T1 construct: made in house; host or cells: transfected 293 cells (LFA-1)
How it was run: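 Human 5dICAM-Ig (ICAM-1 extracellular domain–IgG Fc) coated on plates; membrane-bound LFA-1 from transfected 293 cells (280 ng/mL) added with compound in Mn2+-containing HEPES buffer pH 7.2, 2 h at 37° C. Bound LFA-1 detected via anti-β2 antibody and HRP/TMB at 450 nm; IC50s determined.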

[2] = system: T lymphocyte proliferation (C57BI/6 spleen cells with irradiated BALB/c spleen cells); test: Mixed lymphocyte reaction (MLR), one-way; assay type: cell-based, mice
How it was run: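 One-way murine MLR: C57BI/6 responder splenocytes proliferate against irradiated BALB/c stimulators while exposed to serially diluted antagonists in supplemented RPMI1640 for 3 days. Proliferation read as [3H]-thymidine uptake over a final 6 h pulse (0.5 μCi/well), scintillation counted.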

[3] = read-out: LFA-1/ICAM-1 Protein-Protein Assay IC50
[4] = Mus musculus, T-lymphocyte; read-out: MLR IC50
[5] = LFA-1/ICAM-1 Protein-Protein Assay IC50
[6] = Mus musculus, T-lymphocyte, read-out: MLR IC50

T1 sequence (P20701 26-1170): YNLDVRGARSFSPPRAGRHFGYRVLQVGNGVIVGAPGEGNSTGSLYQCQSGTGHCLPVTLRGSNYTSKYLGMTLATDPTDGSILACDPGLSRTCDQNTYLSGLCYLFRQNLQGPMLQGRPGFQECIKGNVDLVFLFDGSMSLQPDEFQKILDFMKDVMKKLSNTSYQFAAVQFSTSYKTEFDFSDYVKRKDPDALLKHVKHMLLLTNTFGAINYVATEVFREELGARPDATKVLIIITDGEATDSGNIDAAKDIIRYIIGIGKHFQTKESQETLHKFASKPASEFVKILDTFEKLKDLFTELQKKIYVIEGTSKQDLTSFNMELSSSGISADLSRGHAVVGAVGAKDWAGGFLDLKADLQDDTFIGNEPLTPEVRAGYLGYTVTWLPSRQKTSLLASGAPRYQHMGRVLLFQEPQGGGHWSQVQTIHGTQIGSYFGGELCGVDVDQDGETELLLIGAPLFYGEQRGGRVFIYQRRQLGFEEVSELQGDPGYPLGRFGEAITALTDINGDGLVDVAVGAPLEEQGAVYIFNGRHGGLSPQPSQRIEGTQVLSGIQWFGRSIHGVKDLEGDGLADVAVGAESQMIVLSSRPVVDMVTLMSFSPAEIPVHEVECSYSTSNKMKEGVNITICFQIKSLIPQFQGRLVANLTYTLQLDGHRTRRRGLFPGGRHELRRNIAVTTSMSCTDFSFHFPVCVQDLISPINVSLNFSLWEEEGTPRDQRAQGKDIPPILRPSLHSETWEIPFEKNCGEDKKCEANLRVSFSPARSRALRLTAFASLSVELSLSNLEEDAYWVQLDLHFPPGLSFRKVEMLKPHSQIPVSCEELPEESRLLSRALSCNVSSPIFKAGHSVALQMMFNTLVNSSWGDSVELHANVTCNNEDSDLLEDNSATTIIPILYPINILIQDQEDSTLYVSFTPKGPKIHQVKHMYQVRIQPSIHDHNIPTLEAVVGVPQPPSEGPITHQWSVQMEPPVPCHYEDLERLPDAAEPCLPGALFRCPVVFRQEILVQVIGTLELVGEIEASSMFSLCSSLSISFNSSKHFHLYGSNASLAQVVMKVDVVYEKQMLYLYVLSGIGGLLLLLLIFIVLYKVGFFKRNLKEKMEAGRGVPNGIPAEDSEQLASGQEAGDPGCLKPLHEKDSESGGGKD
T1 sequence (P05107 23-769): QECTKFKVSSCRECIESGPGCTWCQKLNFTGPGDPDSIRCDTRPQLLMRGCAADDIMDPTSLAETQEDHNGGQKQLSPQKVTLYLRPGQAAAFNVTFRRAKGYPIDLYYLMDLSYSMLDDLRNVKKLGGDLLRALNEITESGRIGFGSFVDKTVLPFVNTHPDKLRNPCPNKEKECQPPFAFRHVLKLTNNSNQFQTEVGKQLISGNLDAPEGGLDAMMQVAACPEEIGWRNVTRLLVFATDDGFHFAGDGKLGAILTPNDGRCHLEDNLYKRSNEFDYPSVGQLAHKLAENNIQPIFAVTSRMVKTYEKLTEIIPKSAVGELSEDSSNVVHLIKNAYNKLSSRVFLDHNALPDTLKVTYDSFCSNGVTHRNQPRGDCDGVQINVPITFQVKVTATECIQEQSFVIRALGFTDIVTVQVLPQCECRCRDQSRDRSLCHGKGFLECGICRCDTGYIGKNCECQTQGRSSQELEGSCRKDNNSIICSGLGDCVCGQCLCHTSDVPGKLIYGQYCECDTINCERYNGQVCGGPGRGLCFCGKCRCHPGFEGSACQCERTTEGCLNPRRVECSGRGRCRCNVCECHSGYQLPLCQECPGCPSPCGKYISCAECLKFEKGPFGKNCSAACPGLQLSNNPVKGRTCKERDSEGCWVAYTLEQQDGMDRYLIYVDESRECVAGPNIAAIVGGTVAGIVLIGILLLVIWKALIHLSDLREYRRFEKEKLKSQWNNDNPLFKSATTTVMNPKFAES

Compound | IC50 [1, 3] [nM] | IC50 [2, 4] [nM] | IC50 [1, 5] [nM] | IC50 [2, 6] [nM]
O=C(CC1CCCCC1)NC[C@H](NC(=O)c1ccc(C(=O)NCc2cccc(O)c2)cc1Cl)C(=O)O [Example 78] | 1 | 1020 |  | 
O=C(Cc1ccccc1)NC[C@H](NC(=O)c1ccc(C(=O)NCc2cccc(O)c2)cc1Cl)C(=O)O [Example 79] | 2.9 | 2500 |  | 
COc1ccc(CC(=O)NC[C@H](NC(=O)c2ccc(C(=O)NCc3cccc(O)c3)cc2Cl)C(=O)O)cc1 [Example 80] | 6 | 1800 |  | 
O=C(Cc1ccc([N+](=O)[O-])cc1)NC[C@H](NC(=O)c1ccc(C(=O)NCc2cccc(O)c2)cc1Cl)C(=O)O [Example 81] | 4 | 1650 |  | 
O=C(Cc1cccc(C(F)(F)F)c1)NC[C@H](NC(=O)c1ccc(C(=O)NCc2cccc(O)c2)cc1Cl)C(=O)O [Example 82] | 4.3 | 1700 |  | 
O=C(Cc1ccc([N+](=O)[O-])cc1[N+](=O)[O-])NC[C@H](NC(=O)c1ccc(C(=O)NCc2cccc(O)c2)cc1Cl)C(=O)O [Example 83] |  |  | 2.3 | 460
O=C(Cc1cccs1)NC[C@H](NC(=O)c1ccc(C(=O)NCc2cccc(O)c2)cc1Cl)C(=O)O [Example 84] | 1 | 1300 |  | 
O=C(NCc1cccc(O)c1)c1ccc(C(=O)N[C@@H](CNC(=O)C(c2ccccc2)c2ccccc2)C(=O)O)c(Cl)c1 [Example 86] | 3.3 | 4150 |  | 
O=C(Cc1ccc2ccccc2c1)NC[C@H](NC(=O)c1ccc(C(=O)NCc2cccc(O)c2)cc1Cl)C(=O)O [Example 87] | 4.8 | 1300 |  | 
O=C(CC1c2ccccc2-c2ccccc21)NC[C@H](NC(=O)c1ccc(C(=O)NCc2cccc(O)c2)cc1Cl)C(=O)O [Example 88] | 1.8 | 12500 |  | 
O=C(C[n+]1csc2ccccc21)NC[C@H](NC(=O)c1ccc(C(=O)NCc2cccc(O)c2)cc1Cl)C(=O)O [Example 89] | 5.9 | 10500 |  | 
O=C(CSc1ccncc1)NC[C@H](NC(=O)c1ccc(C(=O)NCc2cccc(O)c2)cc1Cl)C(=O)O [Example 90] | 2.4 | 1450 |  | 
O=C(CSc1ncccn1)NC[C@H](NC(=O)c1ccc(C(=O)NCc2cccc(O)c2)cc1Cl)C(=O)O [Example 91] | 5 | 2450 |  | 
CC(C)(C)C(=O)NC[C@H](NC(=O)c1ccc(C(=O)NCc2cccc(O)c2)cc1Cl)C(=O)O [Example 92] | 2.1 | 900 |  | 
O=C(NCc1cccc(O)c1)c1ccc(C(=O)N[C@@H](CNC(=O)C23CC4CC(CC(C4)C2)C3)C(=O)O)c(Cl)c1 [Example 93] | 0.5 | 525 |  | 
O=C(CCc1ccccc1)NC[C@H](NC(=O)c1ccc(C(=O)NCc2cccc(O)c2)cc1Cl)C(=O)O [Example 94] | 1.5 | 1400 |  | 
O=C(NCc1cccc(O)c1)c1ccc(C(=O)N[C@@H](CNC(=O)c2cc([N+](=O)[O-])cc([N+](=O)[O-])c2)C(=O)O)c(Cl)c1 [Example 129] |  |  | 4.2 | 3000
O=C(NCc1cccc(O)c1)c1ccc(C(=O)N[C@@H](CNC(=O)c2cnccn2)C(=O)O)c(Cl)c1 [Example 170] | 1.9 | 560 |  | 
O=C(NCc1cccc(O)c1)c1ccc(C(=O)N[C@@H](CNC(=O)c2cc3ccccc3s2)C(=O)O)c(Cl)c1 [Example 175] | 2.6 | 4000 |  | 
O=C(NCc1cccc(O)c1)c1ccc(C(=O)N[C@@H](CNC(=O)c2ccc3ncsc3c2)C(=O)O)c(Cl)c1 [Example 177] | 1 | 950 |  | 
O=C(NCc1cccc(O)c1)c1ccc(C(=O)N[C@@H](CNC(=O)c2cccc3ccccc23)C(=O)O)c(Cl)c1 [Example 178] | 2.3 | 900 |  | 
O=C(NCc1cccc(O)c1)c1ccc(C(=O)N[C@@H](CNC(=O)c2ccc3ccccc3c2)C(=O)O)c(Cl)c1 [Example 179] | 3.6 | 5400 |  | 
O=C(NCc1cccc(O)c1)c1ccc(C(=O)N[C@@H](CNC(=O)c2cnc3ccccc3c2)C(=O)O)c(Cl)c1 [Example 183] | 12 | 4600 |  | 
O=C(NCc1cccc(O)c1)c1ccc(C(=O)N[C@@H](CNC(=O)c2cc(=O)c3ccccc3o2)C(=O)O)c(Cl)c1 [Example 187] | 12 | 2800 |  | 
O=C(NCc1cccc(O)c1)c1ccc(C(=O)N[C@@H](CNC(=O)c2c3c(nc4ccccc24)CCCC3)C(=O)O)c(Cl)c1 [Example 190] | 13 |  |  | 
O=C(NCc1cccc(O)c1)c1ccc(C(=O)N[C@@H](CNC(=O)c2ccc3c(c2)S(=O)(=O)c2ccccc2C3=O)C(=O)O)c(Cl)c1 [Example 192] | 1.3 | 1700 |  | 

Compound | IC50 [1, 3] [nM] | IC50 [2, 4] [nM] | IC50 [1, 5] [nM] | IC50 [2, 6] [nM]
CC(=O)NC[C@H](NC(=O)c1ccc(C(=O)NCc2cccc(O)c2)cc1Cl)C(=O)O [Example 193] | 0.7 | 830 |  | 
CC(C)C(=O)NC[C@H](NC(=O)c1ccc(C(=O)NCc2cccc(O)c2)cc1Cl)C(=O)O [Example 194] | 1.9 | 800 |  | 
CC(C)CC(=O)NC[C@H](NC(=O)c1ccc(C(=O)NCc2cccc(O)c2)cc1Cl)C(=O)O [Example 195] | 2 | 840 |  | 
O=C(NCc1cccc(O)c1)c1ccc(C(=O)N[C@@H](CNC(=O)[C@@H]2CCCN2)C(=O)O)c(Cl)c1 [Example 196] | 2.8 | 5500 |  | 
CSCC[C@H](N)C(=O)NC[C@H](NC(=O)c1ccc(C(=O)NCc2cccc(O)c2)cc1Cl)C(=O)O [Example 197] | 4.9 | 22500 |  | 
NCCCC[C@H](N)C(=O)NC[C@H](NC(=O)c1ccc(C(=O)NCc2cccc(O)c2)cc1Cl)C(=O)O [Example 198] | 12 | 21500 |  | 
N[C@@H](Cc1ccccc1)C(=O)NC[C@H](NC(=O)c1ccc(C(=O)NCc2cccc(O)c2)cc1Cl)C(=O)O [Example 199] | 7.4 | 19000 |  | 
NC(=O)C[C@H](N)C(=O)NC[C@H](NC(=O)c1ccc(C(=O)NCc2cccc(O)c2)cc1Cl)C(=O)O [Example 200] | 2.9 | 3100 |  | 
N[C@@H](Cc1c[nH]c2ccccc12)C(=O)NC[C@H](NC(=O)c1ccc(C(=O)NCc2cccc(O)c2)cc1Cl)C(=O)O [Example 201] | 7.6 | 17300 |  | 
N[C@@H](CCC(=O)NC[C@H](NC(=O)c1ccc(C(=O)NCc2cccc(O)c2)cc1Cl)C(=O)O)C(=O)O [Example 202] | 1.8 | 500 |  | 
O=C(NC[C@H](NC(=O)c1c(Cl)cccc1Cl)C(=O)O)c1ccccc1 [Example 219] | 13 | 7250 |  | 
O=C(NC[C@H](NC(=O)c1c(Cl)cccc1Cl)C(=O)O)c1ccc(Br)s1 [Example 223] | 6.4 | 3600 |  | 
O=C(NC[C@H](NC(=O)c1c(F)cccc1Cl)C(=O)O)c1ccc(Br)s1 [Example 224] | 24 | 11100 |  | 
O=C(NC[C@H](NC(=O)c1c(F)cccc1Cl)C(=O)O)c1ccc2[nH]nnc2c1 [Example 226] | 47 |  |  | 
O=C(NCc1cccc(O)c1)c1ccc(C(=O)N[C@@H](CNC(=O)c2cc(F)cc(F)c2)C(=O)O)c(Cl)c1 [Example 252, N-[2-chloro-4-[[[(3-hydroxyphenyl)methyl]amino]carbonyl]benzoyl]-3-(3,5-difluorobenzoyl)amino-L-alanine] | 0.9 | 340 |  | 
O=C(NCc1cccc(O)c1)c1ccc(C(=O)N[C@@H](CNC(=O)c2csnn2)C(=O)O)c(Cl)c1 [Example 254] | 0.7 | 460 |  | 
Cc1nnsc1C(=O)NC[C@H](NC(=O)c1ccc(C(=O)NCc2cccc(O)c2)cc1Cl)C(=O)O [Example 255] | 2.9 | 1850 |  | 
O=C(NCc1cccc(O)c1)c1ccc(C(=O)N[C@@H](CNC(=O)c2ccno2)C(=O)O)c(Cl)c1 [Example 256] | 0.8 | 525 |  | 
COc1cscc1C(=O)NC[C@H](NC(=O)c1ccc(C(=O)NCc2cccc(O)c2)cc1Cl)C(=O)O [Example 257] | 1.2 | 1400 |  | 
COc1c(C(=O)NC[C@H](NC(=O)c2ccc(C(=O)NCc3cccc(O)c3)cc2Cl)C(=O)O)csc1Cl [Example 258, N-[2-chloro-4-[[[(3-hydroxyphenyl)methyl]amino]carbonyl]benzoyl]-3-(5-chloro-4-methoxythiophene-3-carbonyl)amino-L-alanine] | 2.2 | 3750 |  | 
O=C(NCc1cccc(O)c1)c1ccc(C(=O)N[C@@H](CNC(=O)c2ccoc2)C(=O)O)c(Cl)c1 [Example 259, N-[2-chloro-4-[[[(3-hydroxyphenyl)methyl]amino]carbonyl]benzoyl]-3-(furan-3-carbonyl)amino-L-alanine] | 1.2 | 260 |  | 
NCCCC(=O)NC[C@H](NC(=O)c1ccc(C(=O)NCc2cccc(O)c2)cc1Cl)C(=O)O [Example 261, N-[2-chloro-4-[[[(3-hydroxyphenyl)methyl]amino]-carbonyl]benzoyl]-3-(4-aminobutanoylamino)-L-alanine] | 2.2 | 780 |  | 
O=C(NCc1cccc(O)c1)c1ccc(C(=O)N[C@@H](CNC(=O)C2CCNCC2)C(=O)O)c(Cl)c1 [Example 262] | 4.8 | 1800 |  | 
NC1(C(=O)NC[C@H](NC(=O)c2ccc(C(=O)NCc3cccc(O)c3)cc2Cl)C(=O)O)CCCC1 [Example 263] | 4.2 | 2100 |  | 
N[C@H]1CC[C@@H](C(=O)NC[C@H](NC(=O)c2ccc(C(=O)NCc3cccc(O)c3)cc2Cl)C(=O)O)CC1 [Example 264] | 4.6 | 1950 |  | 
